Assay results as given in patent US20070043011A1, “Substituted benzanilide compound and noxious organism controlling agent” (priority 2003, published 2007).
Read-outs that look alike come from different tables or passages of the source.

Assays:
Assay type in all cases: in vivo
[1] = system: diamondback moths (Plutella xylostella); assay: Insecticidal test against diamondback moth (leaf dip); settings: foliar, 144 h, read-out: insecticidal rate (rate of dead insects)
Procedure: (§1) A 10% emulsifiable concentrate (depending on the compounds, 25% wettable powder was applied for the test) of the compound of the present invention was diluted with water containing a spreading agent to prepare a chemical solution with a concentration of 100 ppm. To the chemical solution was dipped leaves of Chinese olive for about 10 seconds, and after air-drying, they were placed in a laboratory dish, then, 10 diamondback moths (Plutella xylostella) with second instar larvae per the dish were released therein, and the dish was covered with a lid having holes and contained at a thermostat chamber at 25° C. A number of dead insect(s) after 6 days was counted and a rate of dead insects was calculated in the same manner as in Test Example 1. Incidentally, the test was carried out with two districts.

[2] = system: Common cutworms (Spodoptera litura); assay: Insecticidal test against common cutworm (leaf dip); settings: foliar, 144 h, read-out: insecticidal rate (rate of dead insects)
Procedure: as §1, with “10 Common cutworms (Spodoptera litura)” for “10 diamondback moths (Plutella xylostella)”, “calculated by” for “calculated in”, “the following calculation formula.” for “the same manner as in Test Example 1.”, “districts. Rate of dead insects (%)=(Number of dead insects/Number of released insects)×100” for “districts.”

[3] = system: Common cutworm (Spodoptera litura); assay: Insecticidal test (comparative test) against common cutworm, third instar larvae; settings: leaf dip, counted after 6 days
Procedure: 10% emulsifiable concentrates of the compound of the present invention and comparative compound were diluted with water containing a spreading agent to prepare chemical solutions with a predetermined concentration. To the chemical solutions was dipped leaves of Chinese olive for about 10 seconds, and after air-drying, they were placed in a laboratory dish, then, 7 Common cutworm (Spodoptera litura) with third instar larvae per the dish were released therein, and the dish was covered with a lid having holes and contained at a thermostat chamber at 25° C. Artificial feed (1 cm^3) was added after 2 days, a number of dead insect(s) was counted after 6 days and a rate of dead insects was calculated by the following calculation formula. Incidentally, the test was carried out with two districts. Rate of dead insects (%)=(Number of dead insects/Number of released insects)×100

[4] = 100 ppm, leaf dip, second instar larvae, after 6 days, 25° C.

Structure (SMILES)	pest or weed control at 100 ppm [1] [%]	pest or weed control at 100 ppm [2] [%]	Rate of dead insects ([3]; concentration 33 ppm) [%]	pest or weed control at 100 ppm [1, 4] [%]	pest or weed control at 100 ppm [2, 4] [%]	other results
Cc1cc(C(O)(c2ccc3c(c2)OC(F)(F)C(F)(F)O3)C(F)(F)F)ccc1NC(=O)c1cccc(I)c1C(=O)NC(C)C (stereo not shown) [1-028, N^1-[4-[2,2,2-trifluoro-1-hydroxy-1-(2,2,3,3-tetrafluoro-1,4-dioxa-2,3-dihydronaphthalen-6-yl)ethyl]-2-methylphenyl]-3-iodo-N^2-isopropylphthalic diamide]	100	≥ 80	–	–	–	–
CSCC(C)NC(=O)c1c(I)cccc1C(=O)Nc1ccc(C(O)(c2ccc(Cl)cc2)C(F)(F)F)cc1C (stereo not shown) [1-036]	–	–	100	–	–	Rate of dead insects ([3]; concentration 0.1 ppm): 14.3%; Rate of dead insects ([3]; concentration 0.3 ppm): 28.6%; Rate of dead insects ([3]; concentration 1 ppm): 85.7%; Rate of dead insects ([3]; concentration 3 ppm): 100%; Rate of dead insects ([3]; concentration 10 ppm): 100%
CSCC(C)(C)NC(=O)c1c(I)cccc1C(=O)Nc1ccc(C(O)(c2ccc(Cl)cc2)C(F)(F)F)cc1C (stereo not shown) [1-084]	–	–	100	–	–	Rate of dead insects ([3]; concentration 0.3 ppm): 0%; Rate of dead insects ([3]; concentration 1 ppm): 21.3%; Rate of dead insects ([3]; concentration 3 ppm): 71.4%; Rate of dead insects ([3]; concentration 10 ppm): 100%
Cc1cc(C(O)(c2ccc(Cl)cc2)C(F)(F)F)ccc1NC(=O)c1cccc(I)c1C(=O)NC(C)(C)CS(C)(=O)=O (stereo not shown) [1-087]	–	–	100	–	–	Rate of dead insects ([3]; concentration 0.1 ppm): 0%; Rate of dead insects ([3]; concentration 0.3 ppm): 21.3%; Rate of dead insects ([3]; concentration 1 ppm): 71.4%; Rate of dead insects ([3]; concentration 3 ppm): 100%; Rate of dead insects ([3]; concentration 10 ppm): 100%
CSCC(C)(C)NC(=O)c1c(I)cccc1C(=O)Nc1ccc(C(O)c2ccc(Cl)cc2)cc1C (stereo not shown) [Comparative compound A, reference compound]	–	–	0	–	–	–
Cc1cc(C(O)(c2ccc(OC(F)(F)F)cc2)C(F)(F)F)ccc1NC(=O)c1cccc(I)c1C(=O)NC(C)C (stereo not shown) [Compound No. 1-009, N^1-[4-[2,2,2-trifluoro-1-hydroxy-1-(4-trifluoromethoxyphenyl)ethyl]-2-methylphenyl]-3-iodo-N^2-isopropylphthalic diamide]	100	≥ 80	–	–	–	–
Cc1cc(C(O)(c2ccc(OS(C)(=O)=O)cc2)C(F)(F)F)ccc1NC(=O)c1cccc(I)c1C(=O)NC(C)C (stereo not shown) [Compound No. 1-015, N^1-[4-[2,2,2-trifluoro-1-hydroxy-1-(4-methanesulfonyloxyphenyl)ethyl]-2-methylphenyl]-3-iodo-N^2-isopropylphthalic diamide]	100	≥ 80	–	–	–	–
Cc1cc(C(O)(COc2ccc(Cl)cc2)C(F)(F)F)ccc1NC(=O)c1cccc(I)c1C(=O)NC(C)C (stereo not shown) [Compound No. 2-004, N^1-[4-[2-(4-chlorophenoxy)-1-hydroxy-1-trifluoromethylethyl]-2-methylphenyl]-3-iodo-N^2-isopropylphthalic diamide]	–	–	–	100	≥ 80	–
Cc1cc(C(O)(C(F)(F)F)C(F)(F)Oc2ccc(Cl)cc2)ccc1NC(=O)c1cccc(I)c1C(=O)NC(C)C (stereo not shown) [Compound No. 2-008, N^1-[4-[2-(4-chlorophenoxy)-2,2-difluoro-1-hydroxy-1-trifluoromethylethyl]-2-methylphenyl]-3-iodo-N^2-isopropylphthalic diamide]	–	–	–	100	≥ 80	–
Cc1cc(C(O)(C=Cc2ccc(Cl)cc2)C(F)(F)F)ccc1NC(=O)c1cccc(I)c1C(=O)NC(C)C (stereo not shown) [Compound No. 2-018, N^1-[4-[3-(4-chlorophenyl)-1-hydroxy-1-trifluoromethyl-2-propenyl]-2-methylphenyl]-3-iodo-N^2-isopropylphthalic diamide]	–	–	–	100	≥ 80	–
COC(c1ccc(Cl)cc1)(c1ccc(NC(=O)c2cccc(I)c2C(=O)NC(C)C)c(C)c1)C(F)(F)F (stereo not shown) [Compound No. 3-002, N^1-[4-[1-(4-chlorophenyl)-2,2,2-trifluoro-1-methoxyethyl]-2-methylphenyl]-3-iodo-N^2-isopropylphthalic diamide]	100	≥ 80	–	–	–	–
Cc1cc2c(cc1NC(=O)c1cccc(I)c1C(=O)NC(C)C)OC(F)(F)C2(O)C(F)(F)F (stereo not shown) [Compound No. 4-002, N^1-(2,2-difluoro-3-hydroxy-5-methyl-3-trifluoromethyl-2,3-dihydrobenzofuran-6-yl)-3-iodo-N^2-isopropylphthalic diamide]	–	–	–	100	≥ 80	–
